US10131652B2, “Pyrimidinyloxy benzene derivatives as herbicides” (E. I. DU PONT DE NEMOURS AND COMPANY, priority 2014, dated 2018)
Read-outs that look alike come from different tables or passages of the source.

Legend:
Assay type in all cases: in vivo
[1] = system: wheat (Triticum aestivum); experiment: Test B pre-/postemergence plant response; conditions: Triticum aestivum, post-emergence, 240 h, read-out: Plant response rating, Wheat
Method in brief: (§1)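 Visual injury scores on a 0–100 scale (100 = complete control) relative to untreated plants, taken about 10 days post-treatment in greenhouse. Treatments were a directed preemergence soil spray and a postemergence spray at one- to two-leaf stage, using surfactant-containing solvent formulation.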

[2] = system: giant foxtail (Setaria faberii); experiment: Test B pre-/postemergence plant response; conditions: Setaria faberi, 240 h, read-out: Plant response rating, Foxtail, Giant; for pest or weed control at 125 g/ha: 125 g ai/ha; for pest or weed control at 500 g/ha: 500 g ai/ha
Method in brief: as §1

[3] = system: pigweed (Amaranthus retroflexus); experiment: Test B pre-/postemergence plant response; conditions: Amaranthus retroflexus, 240 h, read-out: Plant response rating, Pigweed; for pest or weed control at 125 g/ha: 125 g ai/ha; for pest or weed control at 500 g/ha: 500 g ai/ha
Method in brief: as §1

[4] = system: barnyardgrass (Echinochloa crus-galli); experiment: Test B pre-/postemergence plant response; conditions: Echinochloa crus-galli, 240 h, read-out: Plant response rating, Barnyardgrass; for pest or weed control at 125 g/ha: 125 g ai/ha; for pest or weed control at 500 g/ha: 500 g ai/ha
Method in brief: as §1

[5] = system: corn (Zea mays); experiment: Test B pre-/postemergence plant response; conditions: Zea mays, post-emergence, 240 h
Method in brief: as §1

[6] = system: small-flower umbrella sedge (Cyperus difformis); experiment: Test C flooded paddy test plant response; conditions: Cyperus difformis; Flood, 250 g ai/ha; scale of 0 to 100 where 0 is no effect and 100 is complete control; 13 to 15 days; read-out: Sedge, Umbrella plant response rating
Method in brief: (§2)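 Scale 0 (no effect) to 100 (complete control), assigned visually versus controls after 13–15 d greenhouse. Application: directly to paddy water, 3 cm flood depth kept constant, 2-leaf stage.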

[7] = system: barnyardgrass (Echinochloa crus-galli); experiment: Test C flooded paddy test plant response; conditions: Echinochloa crus-galli; Flood, 250 g ai/ha; scale of 0 to 100 where 0 is no effect and 100 is complete control; 13 to 15 days; read-out: Barnyardgrass plant response rating
Method in brief: as §2

[8] = system: ducksalad (Heteranthera limosa); experiment: Test C flooded paddy test plant response; conditions: Heteranthera limosa; Flood, 250 g ai/ha; scale of 0 to 100 where 0 is no effect and 100 is complete control; 13 to 15 days; read-out: Ducksalad plant response rating
Method in brief: as §2

[9] = system: rice (Oryza sativa); experiment: Test C flooded paddy test plant response; conditions: Oryza sativa; Flood, 250 g ai/ha; scale of 0 to 100 where 0 is no effect and 100 is complete control; 13 to 15 days; read-out: Rice plant response rating
Method in brief: as §2

[10] = system: large (Lg) crabgrass (Digitaria sanguinalis); experiment: Test D pre-/postemergence plant response; conditions: Digitaria sanguinalis; for pest or weed control at 16 g/ha: 16 g ai/ha; for pest or weed control at 31 g/ha: 31 g ai/ha; for pest or weed control at 62 g/ha: 62 g ai/ha; for pest or weed control at 125 g/ha: 125 g ai/ha
Description: (§3) Seeds of plant species selected from blackgrass (Alopecurus myosuroides), Italian ryegrass (Lolium multiflorum), winter wheat (Triticum aestivum), galium (catchweed bedstraw, Galium aparine), corn (Zea mays), large (Lg) crabgrass (Digitaria sanguinalis), giant foxtail (Setaria faberii), johnsongrass (Sorghum halepense), lambsquarters (Chenopodium album), morningglory (Ipomoea coccinea), yellow nutsedge (Cyperus esculentus), pigweed (Amaranthus retroflexus), ragweed (common ragweed, Ambrosia elatior), soybean (Glycine max), bamyardgrass (Echinochloa crus-galli), oilseed rape (Brassica napus), waterhemp (common waterhemp, Amaranthus rudis), and velvetleaf (Abutilon theophrasti) were planted into a blend of loam soil and sand and treated preemergence with test chemicals formulated in a non-phytotoxic solvent mixture which included a surfactant. At the same time, plants selected from these crop and weed species and also kochia (Kochia scoparia), wild oat (Avena fatua), and chickweed (common chickweed, Stellaria media) were planted in pots containing Redi-Earth® planting medium (Scotts Company, 14111 Scottslawn Road, Marysville, Ohio 43041) comprising spaghnum peat moss, vermiculite, wetting agent and starter nutrients and treated with postemergence applications of test chemicals formulated in the same manner. Plants ranged in height from 2 to 18 cm (1- to 4-leaf stage) for postemergence treatments. Treated plants and controls were maintained in a greenhouse for 13 to 15 days, after which time all species were compared to controls and visually evaluated. Plant response ratings, summarized in Table D, are based on a scale of 0 to 100 where 0 is no effect and 100 is complete control. A dash (-) response means no test result.

[11] = system: galium (catchweed bedstraw, Galium aparine); experiment: Test D pre-/postemergence plant response; conditions: Galium; for pest or weed control at 16 g/ha: 16 g ai/ha; for pest or weed control at 31 g/ha: 31 g ai/ha; for pest or weed control at 62 g/ha: 62 g ai/ha; for pest or weed control at 125 g/ha: 125 g ai/ha
Description: as §3

[12] = system: blackgrass (Alopecurus myosuroides); experiment: Test D pre-/postemergence plant response; conditions: Alopecurus myosuroides, post-emergence, Postemergence, scale 0 to 100 (0 no effect, 100 complete control), read-out: Blackgrass plant response rating
Description: as §3

[13] = 125 g ai/ha, postemergence, 0 to 100 scale, 0 no effect, 100 complete control
[14] = Postemergence, 500 g ai/ha, 0 to 100 scale (0 no effect, 100 complete control)
[15] = post-emergence, postemergence, 0 to 100 scale, 0 no effect, 100 complete control
[16] = post-emergence, Postemergence, 0 to 100 scale (0 no effect, 100 complete control)
[17] = pre-emergence, Preemergence, 0 to 100 scale where 0 is no effect and 100 is complete control
[18] = post-emergence, Postemergence, scale 0 to 100 (0 no effect, 100 complete control), read-out: Crabgrass, Large plant response rating
[19] = post-emergence, Postemergence, scale 0 to 100, 0 no effect, 100 complete control, read-out: Plant response rating, Crabgrass, Large
[20] = pre-emergence, Preemergence, scale 0 to 100 (0 no effect, 100 complete control), read-out: Plant response rating, Crabgrass, Large
[21] = post-emergence, Postemergence, scale 0 to 100 (0 no effect, 100 complete control), read-out: Galium plant response rating
[22] = post-emergence, Postemergence, scale 0 to 100, 0 no effect, 100 complete control, read-out: Plant response rating, Galium
[23] = pre-emergence, Preemergence, scale 0 to 100 (0 no effect, 100 complete control), read-out: Plant response rating, Galium

Work on `FC(F)c1cc(-c2ccccc2Oc2ncc(Cl)cn2)on1` [Compound 53, 5-chloro-2-[2-[3-(difluoromethyl)-5-isoxazolyl]phenoxy]pyrimidine] yielded a plant injury at 125 g/ha [1, 13] of 40%, a plant injury at 500 g/ha [1, 14] of 80% and a pest or weed control at 125 g/ha [2, 15] of 100%. The pest or weed control at 500 g/ha [2, 16] was 100%, the pest or weed control at 125 g/ha [2, 17] was 90% and the pest or weed control at 500 g/ha [2, 17] was 100%. It also gave a pest or weed control at 125 g/ha [3, 15] of 100%, a pest or weed control at 500 g/ha [3, 16] of 100% and a pest or weed control at 125 g/ha [3, 17] of 100%. The pest or weed control at 500 g/ha [3, 17] was 100%, the pest or weed control at 125 g/ha [4, 15] was 100% and the pest or weed control at 500 g/ha [4, 16] was 100%. The pest or weed control at 125 g/ha [4, 17] was 90%, the pest or weed control at 500 g/ha [4, 17] was 100% and the Corn plant response rating (crop injury, 0 = no effect, 100 = complete kill) at 125 g/ha [5, 13] was 10%. The Corn plant response rating (crop injury, 0 = no effect, 100 = complete kill) at 500 g/ha [5, 14] was 70%, the pest or weed control at 250 g/ha [6] was 75% and the pest or weed control at 250 g/ha [7] was 20%. The pest or weed control at 250 g/ha [8] was 80%, the plant injury at 250 g/ha [9] was 20% and the pest or weed control at 16 g/ha [10, 18] was 10%. It also gave a pest or weed control at 31 g/ha [10, 18] of 20%, a pest or weed control at 62 g/ha [10, 19] of 15% and a pest or weed control at 125 g/ha [10, 19] of 30%. It also gave a pest or weed control at 125 g/ha ([10]; pre-emergence, Preemergence, read-out: Plant response rating (scale 0 to 100), Crabgrass, Large) of 100%, a pest or weed control at 16 g/ha [10, 20] of 65% and a pest or weed control at 31 g/ha [10, 20] of 95%. For the same molecule, the pest or weed control at 62 g/ha [10, 20] was 98%, the pest or weed control at 16 g/ha [11, 21] was 60% and the pest or weed control at 31 g/ha [11, 21] was 85%. It also gave a pest or weed control at 62 g/ha [11, 22] of 95%, a pest or weed control at 125 g/ha [11, 22] of 90% and a pest or weed control at 125 g/ha ([11]; pre-emergence, Preemergence, read-out: Plant response rating (scale 0 to 100), Galium) of 98%. It also gave a pest or weed control at 16 g/ha [11, 23] of 85%, a pest or weed control at 31 g/ha [11, 23] of 95% and a pest or weed control at 62 g/ha [11, 23] of 100%. It also gave a pest or weed control at 16 g/ha ([12]; 16 g ai/ha) of 5% and a pest or weed control at 31 g/ha ([12]; 31 g ai/ha) of 40%.
